Source: ChEMBL document CHEMBL3885881, “DrugMatrix”

Species on record: Rattus norvegicus
Assay: DrugMatrix - Regimen: Daily Repeat
Type: toxicity, organism-based, Sprague-Dawley
Design: regimen Daily Repeat, gender Male, age 6-8 weeks
Conditions: in vivo, iv, vehicle 100 % SALINE; for ABSOLUTE BASOPHIL / ABSOLUTE EOSINOPHIL / ABSOLUTE LYMPHOCYTE / ABSOLUTE MONOCYTE / ABSOLUTE SEGMENTED NEUTROPHIL / BASOPHIL / EOSINOPHIL / ERYTHROCYTE COUNT / HEMATOCRIT / HEMOGLOBIN / LEUKOCYTE COUNT / LYMPHOCYTE / MEAN CORPUSCULAR HEMOGLOBIN / MEAN CORPUSCULAR HEMOGLOBIN CONCENTRATION / MEAN CORPUSCULAR VOLUME / MONOCYTE / NEUTROPHIL / NUCLEATED RED BLOOD CELLS / PLATELET COUNT: tissue Blood; for ALANINE AMINOTRANSFERASE / ALBUMIN / ALKALINE PHOSPHATASE / ASPARTATE AMINOTRANSFERASE / BLOOD UREA NITROGEN / CARBON DIOXIDE / CHLORIDE / CHOLESTEROL / CREATINE PHOSPHOKINASE / CREATININE / GLUCOSE / LACTATE DEHYDROGENASE / LIPASE / PHOSPHORUS / POTASSIUM / SODIUM / TOTAL BILIRUBIN / TOTAL PROTEIN / URIC ACID: tissue Plasma
[1] = 0.5 mg/kg, 120 h, dose level Low, time 5 day
[2] = […], 72 h, dose 1.7 mg/Kg, dose level High, time 3 day
[3] = […], 120 h, dose 1.7 mg/Kg, dose level High, time 5 day

Structure (SMILES): CO[C@@]12[C@H](COC(N)=O)C3=C(C(=O)C(C)=C(N)C3=O)N1C[C@@H]1N[C@@H]12 [MITOMYCIN]
- ABSOLUTE BASOPHIL [1]: 0 CELLS/uL
- ABSOLUTE EOSINOPHIL [1]: 31 CELLS/uL
- ABSOLUTE LYMPHOCYTE [1]: 7760.33 CELLS/uL
- ABSOLUTE MONOCYTE [1]: 22.67 CELLS/uL
- ABSOLUTE SEGMENTED NEUTROPHIL [1]: 286 CELLS/uL
- BASOPHIL [1]: 0%
- EOSINOPHIL [1]: 0.33%
- ERYTHROCYTE COUNT [1]: 6.12 x10E6/uL
- HEMATOCRIT [1]: 36.83%
- HEMOGLOBIN [1]: 14.33 G/DL
- LEUKOCYTE COUNT [1]: 8.1 x10E3/uL
- LYMPHOCYTE [1]: 96%
- MEAN CORPUSCULAR HEMOGLOBIN [1]: 23.4 pg
- MEAN CORPUSCULAR HEMOGLOBIN CONCENTRATION [1]: 38.9 G/DL
- MEAN CORPUSCULAR VOLUME [1]: 60.2 fL
- MONOCYTE [1]: 0.33%
- NEUTROPHIL [1]: 3.33%
- NUCLEATED RED BLOOD CELLS [1]: 0.67 /100WBC
- PLATELET COUNT [1]: 1302.33 x10E3/uL
- ALANINE AMINOTRANSFERASE [1]: 47.33 u/L
- ALBUMIN [1]: 4.03 G/DL
- ALKALINE PHOSPHATASE [1]: 285.67 u/L
- ASPARTATE AMINOTRANSFERASE [1]: 78 u/L
- BLOOD UREA NITROGEN [1]: 16.33 mg/dL
- CARBON DIOXIDE [1]: 29.33 mmol/L
- CHLORIDE [1]: 101.67 MEQ/L
- CHOLESTEROL [1]: 67.33 mg/dL
- CREATINE PHOSPHOKINASE [1]: 203 u/L
- CREATININE [1]: 0.34 mg/dL
- GLUCOSE [1]: 154 mg/dL
- LACTATE DEHYDROGENASE [1]: 120 u/L
- LIPASE [1]: 11 u/L
- PHOSPHORUS [1]: 10.5 mg/dL
- POTASSIUM [1]: 4.84 MEQ/L
- SODIUM [1]: 145.67 MEQ/L
- TOTAL BILIRUBIN [1]: 0.13 mg/dL
- TOTAL PROTEIN [1]: 5.83 G/DL
- URIC ACID [1]: 0.57 mg/dL
- ABSOLUTE BASOPHIL [2]: 0 CELLS/uL
- ABSOLUTE EOSINOPHIL [2]: 31.67 CELLS/uL
- ABSOLUTE LYMPHOCYTE [2]: 7497.33 CELLS/uL
- ABSOLUTE MONOCYTE [2]: 0 CELLS/uL
- ABSOLUTE SEGMENTED NEUTROPHIL [2]: 1104.33 CELLS/uL
- BASOPHIL [2]: 0%
- EOSINOPHIL [2]: 0.33%
- ERYTHROCYTE COUNT [2]: 5.47 x10E6/uL
- HEMATOCRIT [2]: 33.9%
- HEMOGLOBIN [2]: 13.43 G/DL
- LEUKOCYTE COUNT [2]: 8.63 x10E3/uL
- LYMPHOCYTE [2]: 86.67%
- MEAN CORPUSCULAR HEMOGLOBIN [2]: 24.6 pg
- MEAN CORPUSCULAR HEMOGLOBIN CONCENTRATION [2]: 39.63 G/DL
- MEAN CORPUSCULAR VOLUME [2]: 62.07 fL
- MONOCYTE [2]: 0%
- NEUTROPHIL [2]: 13%
- NUCLEATED RED BLOOD CELLS [2]: 0 /100WBC
- PLATELET COUNT [2]: 1626.67 x10E3/uL
- ALANINE AMINOTRANSFERASE [2]: 35.67 u/L
- ALBUMIN [2]: 4.03 G/DL
- ALKALINE PHOSPHATASE [2]: 211 u/L
- ASPARTATE AMINOTRANSFERASE [2]: 72.33 u/L
- BLOOD UREA NITROGEN [2]: 13.33 mg/dL
- CARBON DIOXIDE [2]: 29.33 mmol/L
- CHLORIDE [2]: 99.33 MEQ/L
- CHOLESTEROL [2]: 71.33 mg/dL
- CREATINE PHOSPHOKINASE [2]: 245.67 u/L
- CREATININE [2]: 0.15 mg/dL
- GLUCOSE [2]: 145.33 mg/dL
- LACTATE DEHYDROGENASE [2]: 173 u/L
- LIPASE [2]: 8 u/L
- PHOSPHORUS [2]: 11.53 mg/dL
- POTASSIUM [2]: 5.56 MEQ/L
- SODIUM [2]: 141.2 MEQ/L
- TOTAL BILIRUBIN [2]: 0.1 mg/dL
- TOTAL PROTEIN [2]: 5.6 G/DL
- URIC ACID [2]: 1.6 mg/dL
- ABSOLUTE BASOPHIL [3]: 0 CELLS/uL
- ABSOLUTE EOSINOPHIL [3]: 0 CELLS/uL
- ABSOLUTE LYMPHOCYTE [3]: 2370 CELLS/uL
- ABSOLUTE MONOCYTE [3]: 67 CELLS/uL
- ABSOLUTE SEGMENTED NEUTROPHIL [3]: 663 CELLS/uL
- BASOPHIL [3]: 0%
- EOSINOPHIL [3]: 0%
- ERYTHROCYTE COUNT [3]: 6.15 x10E6/uL
- HEMATOCRIT [3]: 38.97%
- HEMOGLOBIN [3]: 14.9 G/DL
- LEUKOCYTE COUNT [3]: 3.1 x10E3/uL
- LYMPHOCYTE [3]: 78.33%
- MEAN CORPUSCULAR HEMOGLOBIN [3]: 24.23 pg
- MEAN CORPUSCULAR HEMOGLOBIN CONCENTRATION [3]: 38.23 G/DL
- MEAN CORPUSCULAR VOLUME [3]: 63.33 fL
- MONOCYTE [3]: 2%
- NEUTROPHIL [3]: 19.67%
- NUCLEATED RED BLOOD CELLS [3]: 0 /100WBC
- PLATELET COUNT [3]: 1554 x10E3/uL
- ALANINE AMINOTRANSFERASE [3]: 21.33 u/L
- ALBUMIN [3]: 3.37 G/DL
- ALKALINE PHOSPHATASE [3]: 94.67 u/L
- ASPARTATE AMINOTRANSFERASE [3]: 57 u/L
- BLOOD UREA NITROGEN [3]: 15 mg/dL
- CARBON DIOXIDE [3]: 30.67 mmol/L
- CHLORIDE [3]: 100.33 MEQ/L
- CHOLESTEROL [3]: 84.67 mg/dL
- CREATINE PHOSPHOKINASE [3]: 265.67 u/L
- CREATININE [3]: 0.26 mg/dL
- GLUCOSE [3]: 154 mg/dL
- LACTATE DEHYDROGENASE [3]: 136.67 u/L
- LIPASE [3]: 10.67 u/L
- PHOSPHORUS [3]: 8.73 mg/dL
- POTASSIUM [3]: 4.86 MEQ/L
- SODIUM [3]: 144.3 MEQ/L
- TOTAL BILIRUBIN [3]: 0.1 mg/dL
- TOTAL PROTEIN [3]: 5.13 G/DL
- URIC ACID [3]: 0.57 mg/dL
